Earlier results on 1 molecule are cited in patent publication US8207231B2, “Hepatitis A virucide” (Ecolab USA Inc., priority 1999, dated 2012).

The series concerns hepatitis A. As to conditions: 1 percent and 2 percent concentration.

As to `Cc1ccc(S(=O)(=O)[N-]Cl)cc1.[Na+]` [chloramine T], the “meets the requirements for activity against hepatitis A” value was “meets the requirements for activity against hepatitis A”.
